Target: Erk1 (Homo sapiens (Human), UniProt P27361)
Assay: Protein Mass Modification Assay (intact protein MALDI)
Assay type: binding
Protocol: Protein Mass Modification Assay
Intact protein: Erk1 from Millipore (Cat. No. 14-439) was incubated for 60 min. at room temperature with a 10-fold excess of test compound to protein. 4 μL aliquots of the resulting mixture were diluted with 15 μL of 0.2% TFA prior to micro C4 ZipTipping directly onto the MALDI target using sinapinic acid as the desorption matrix (10 mg/ml in 0.1% TFA:Acetonitrile 50:50, v/v). The centroid mass of the target protein in the control sample was compared with the centroid mass of the target protein incubated with compound. A shift in the centroid mass of the treated protein compared to the untreated protein was divided by the molecular weight of the compound. This number corresponds to the percentage of modified protein after one hour incubation. Results from this assay are reported in Table A under the column “ERK1 Mass Mod (%).”

Erk1, sequence (P27361 whole entry, looked up): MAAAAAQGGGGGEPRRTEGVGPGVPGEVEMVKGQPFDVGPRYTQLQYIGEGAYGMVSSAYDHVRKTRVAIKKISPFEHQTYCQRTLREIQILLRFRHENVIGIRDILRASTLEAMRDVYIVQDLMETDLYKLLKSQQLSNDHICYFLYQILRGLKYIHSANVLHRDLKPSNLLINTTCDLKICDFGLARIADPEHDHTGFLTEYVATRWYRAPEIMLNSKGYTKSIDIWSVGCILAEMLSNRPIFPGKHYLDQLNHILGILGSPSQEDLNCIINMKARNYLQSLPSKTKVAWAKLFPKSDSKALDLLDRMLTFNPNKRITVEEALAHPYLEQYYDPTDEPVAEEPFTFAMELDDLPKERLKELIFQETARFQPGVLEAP

| ERK1 Mass Mod (%) | SMILES |
| --- | --- |
| G (proived a mass modification ≦30%) | O=C(CCCl)Nc1ccccc1Nc1nc(N[C@H]2CCCN(C(=O)CO)C2)ncc1C(F)(F)F [Compound I-22, (S)-3-Chloro-N-(2-((2-((1-(2-hydroxyacetyl)piperidin-3-yl)amino)-5-(trifluoromethyl)pyrimidin-4-yl)amino)phenyl)propanamide] |
| G (proived a mass modification ≦30%) | CC(=O)N1CCC[C@H](Nc2ncc(C(F)(F)F)c(Nc3ccccc3NC(=O)CCl)n2)C1 [Compound I-30, (S)—N-(2-((2-((1-Acetylpiperidin-3-yl)amino)-5-(trifluoromethyl)pyrimidin-4-yl)amino)phenyl)-2-chloroacetamide] |
| G (proived a mass modification ≦30%) | O=C(CCl)Nc1ccccc1Nc1nc(N[C@H]2CCCN(C(=O)CCl)C2)ncc1C(F)(F)F [Compound I-31, (S)-2-Chloro-N-(2-((2-((1-(2-chloroacetyl)piperidin-3-yl)amino)-5-(trifluoromethyl)pyrimidin-4-yl)amino)phenyl)acetamide] |
| G (proived a mass modification ≦30%) | O=C(CCl)N[C@@H]1CCCC[C@H]1Nc1nc(N[C@H]2CCCN(C(=O)CO)C2)ncc1C(F)(F)F [Compound I-35, 2-Chloro-N-((1R,2R)-2-((2-(((S)-1-(2-hydroxyacetyl)piperidin-3-yl)amino)-5-(trifluoromethyl)pyrimidin-4-yl)amino)cyclohexyl)acetamide] |
| E (provided a mass modification of ≧70%) | C=CC(=O)Nc1ccc(C)cc1Nc1nc(NC2CCC(=O)CC2)ncc1C(F)(F)F [Compound I-39, N-(4-Methyl-2-((2-((4-oxocyclohexyl)amino)-5-(trifluoromethyl)pyrimidin-4-yl)amino)phenyl)acrylamide] |
| E (provided a mass modification of ≧70%) | C=CC(=O)Nc1ccccc1Nc1nc(N[C@H]2CCCN(C(=O)[C@@H](O)CO)C2)ncc1C(F)(F)F [Compound I-50, N-(2-((2-(((S)-1-((S)-2,3-Dihydroxypropanoyl)piperidin-3-yl)amino)-5-(trifluoromethyl)pyrimidin-4-yl)amino)phenyl)acrylamide] |
| E (provided a mass modification of ≧70%) | C=CC(=O)Nc1ccccc1Nc1nc(N[C@H]2CCCN(C(=O)C=O)C2)ncc1C(F)(F)F [Compound I-52, (S)—N-(2-((2-((1-(2-Oxoacetyl)piperidin-3-yl)amino)-5-(trifluoromethyl)pyrimidin-4-yl)amino)phenyl)acrylamide] |
| E (provided a mass modification of ≧70%) | C=CC(=O)Nc1ccccc1Nc1nc(N[C@H]2CCN(S(C)(=O)=O)C2)ncc1C(F)(F)F [Compound I-58, (S)—N-(2-((2-((1-(Methylsulfonyl)pyrrolidin-3-yl)amino)-5-(trifluoromethyl)pyrimidin-4-yl)amino)phenyl)acrylamide] |
| E (provided a mass modification of ≧70%) | C=CC(=O)Nc1ccccc1Nc1nc(N[C@H]2CCN(C(=O)OC)C2)ncc1C(F)(F)F [Compound I-59, (S)-methyl 3-((4-((2-Acrylamidophenyl)amino)-5-(trifluoromethyl)pyrimidin-2-yl)amino)pyrrolidine-1-carboxylate] |
| E (provided a mass modification of ≧70%) | C=CC(=O)Nc1ccccc1Nc1nc(N[C@@H]2CCN(C(C)=O)C2)ncc1C(F)(F)F [Compound I-60, (R)—N-(2-((2-((1-Acetylpyrrolidin-3-yl)amino)-5-(trifluoromethyl)pyrimidin-4-yl)amino)phenyl)acrylamide] |
| E (provided a mass modification of ≧70%) | C=CC(=O)Nc1ccccc1Nc1nc(Nc2ccc(N3CCOCC3)cc2OC)ncc1C(F)(F)F [Compound I-65, N-(2-((2-((2-Methoxy-4-morpholinophenyl)amino)-5-(trifluoromethyl)pyrimidin-4-yl)amino)phenyl)acrylamide] |
| E (provided a mass modification of ≧70%) | C=CC(=O)Nc1ccccc1Nc1nc(Nc2cc(C(=O)NOC)ccc2OC)ncc1C(F)(F)F [Compound I-67, 3-((4-((2-Acrylamidophenyl)amino)-5-(trifluoromethyl)pyrimidin-2-yl)amino)-N,4-dimethoxybenzamide] |

More lines, now with the values behind:

| SMILES | ERK1 Mass Mod (%) |
| --- | --- |
| CC(=O)N1CCC[C@H](Nc2ncc(C(F)(F)F)c(Nc3ccccc3NC(=O)CCCl)n2)C1 [Compound I-21, (S)—N-(2-((2-((1-Acetylpiperidin-3-yl)amino)-5-(trifluoromethyl)pyrimidin-4-yl)amino)phenyl)-3-chloropropanamide] | F (provided a mass modification of 31-69%) |
| C=CC(=O)N[C@@H]1CCCC[C@H]1Nc1nc(N[C@H]2CCCN(C(=O)CO)C2)ncc1C(F)(F)F [Compound I-32, N-((1R,2R)-2-((2-(((S)-1-(2-hydroxyacetyl)piperidin-3-yl)amino)-5-(trifluoromethyl)pyrimidin-4-yl)amino)cyclohexyl)acrylamide] | F (key: E: provided a mass modification of ≧70%; F: provided a mass modification of 31-69%; G: proived a mass modification ≦30%) |
| C#CC(=O)N[C@@H]1CCCC[C@H]1Nc1nc(N[C@H]2CCCN(C(=O)CO)C2)ncc1C(F)(F)F [Compound I-34, N-((1R,2R)-2-((2-(((S)-1-(2-Hydroxyacetyl)piperidin-3-yl)amino)-5-(trifluoromethyl)pyrimidin-4-yl)amino)cyclohexyl)propiolamide] | F (provided a mass modification of 31-69%) |
| C=CC(=O)Nc1ccccc1Nc1nc(N[C@H]2CCCN(C(=O)C(C)=O)C2)ncc1C(F)(F)F [Compound I-49, (S)—N-(2-((2-((1-(2-Oxopropanoyl)piperidin-3-yl)amino)-5-(trifluoromethyl)pyrimidin-4-yl)amino)phenyl)acrylamide] | E (provided a mass modification of ≧70%) |
| C=CC(=O)Nc1ccccc1Nc1nc(N[C@H]2CCCN(C(=O)[C@H](O)CO)C2)ncc1C(F)(F)F [Compound I-51, N-(2-((2-(((S)-1-((R)-2,3-Dihydroxypropanoyl)piperidin-3-yl)amino)-5-(trifluoromethyl)pyrimidin-4-yl)amino)phenyl)acrylamide] | E (provided a mass modification of ≧70%) |
| C=CC(=O)Nc1ccccc1Nc1nc(N[C@H]2CCN(C(C)=O)C2)ncc1C(F)(F)F [Compound I-56, (S)—N-(2-((2-((1-Acetylpyrrolidin-3-yl)amino)-5-(trifluoromethyl)pyrimidin-4-yl)amino)phenyl)acrylamide] | F (provided a mass modification of 31-69%) |
| C=CC(=O)Nc1ccccc1Nc1nc(N[C@H]2CCN(C(=O)CO)C2)ncc1C(F)(F)F [Compound I-57, (S)—N-(2-((2-((1-(2-Hydroxyacetyl)pyrrolidin-3-yl)amino)-5-(trifluoromethyl)pyrimidin-4-yl)amino)phenyl)acrylamide] | F (provided a mass modification of 31-69%) |
| C=CC(=O)Nc1ccccc1Nc1nc(Nc2cc(C(=O)NOC)ccc2C#N)ncc1C(F)(F)F [Compound I-72, 3-((4-((2-Acrylamidophenyl)amino)-5-(trifluoromethyl)pyrimidin-2-yl)amino)-4-cyano-N-methoxybenzamide] | E (provided a mass modification of ≧70%) |
